What all share (assay): NCI-60 cell line screen, 48 h
Experiment [1] concerns M14 melanoma.
Experiment [2] relates to A549 NSCLC.
Experiment [3] deals with HCC-2998 colon.
Experiment [4] has as its system SK-MEL-5 melanoma.
Experiment [5] concerns MOLT-4 leukemia.
In experiment [6] the test system is SW-620 colon.
The test system of experiment [7] is IGROV1 ovarian.
The test system of experiment [8] is OVCAR-5 ovarian.
Experiment [9] relates to KM12 colon.
Experiment [10] relates to PC-3 prostate.

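Compound exposure: 48 hours, 5 concentrations, 96-well plates. TGI: concentration producing complete growth inhibition.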 Where only a bound is given, the exact number is not on record here.

Take `CC1(CCCO)CCCCCC(C)(CCCO)C1=O` (stereo not given): the TGI in [1], in experiment [2], in experiment [3], in experiment [4], in [5] and in [6] was > 100 µM in each case. Moreover, the TGI in experiment [7], in experiment [8], in [9] and in experiment [10] was > 100 µM in each case.

For the compound `CCC(=O)NC(Nc1cccc(F)c1C)(C(F)(F)F)C(F)(F)F`, the TGI in experiment [1], in experiment [2], in [3], in experiment [4], in [5] and in experiment [6] was > 100 µM in each case. In addition, the TGI in experiment [7], in experiment [8], in experiment [9] and in experiment [10] was > 100 µM each time.

For `C[C@@H]1C[C@H]2[C@@H]3CCC4=CC(=O)C=C[C@]4(C)[C@@]3(Cl)[C@@H](Cl)C[C@]2(C)[C@@]1(O)C(=O)COP(=O)(O)O`, the TGI in [1], in experiment [2], in experiment [3], in [4], in experiment [5] and in experiment [6] was > 100 µM throughout. Further, the TGI in experiment [7], in experiment [8], in experiment [9] and in experiment [10] was > 100 µM in each case.

As to `C[C@]12CC[C@H](O)CC1=CC[C@@H]1[C@@H]2CC[C@]2(C)C(=O)[C@@H](N3CCOCC3)C[C@@H]12`, the TGI in experiment [1], in experiment [2], in experiment [3], in experiment [4], in [5] and in experiment [6] was > 100 µM each time. Also, the TGI in [7], in experiment [8], in [9] and in experiment [10] was > 100 µM each time.

In the case of `CN1C(=O)N/C(=C\c2ccc(S(=O)(=O)NN)cc2)C1=O`, the TGI in [1], in experiment [2], in [3], in [4], in experiment [5] and in experiment [6] was > 100 µM each time. The TGI in experiment [7], in experiment [8], in experiment [9] and in experiment [10] was > 100 µM in each case.

For `CCOC(=O)C1=CC(C)(C(=O)OCC)Nc2c(nc(OC)n(C)c2=O)N1` (stereo not given), the TGI in experiment [1], in experiment [2], in experiment [3], in experiment [4], in experiment [5] and in experiment [6] was > 10 µM throughout. For the same compound, the TGI in experiment [7], in experiment [8], in [9] and in [10] was > 10 µM throughout.

For `O=c1[nH]c(-c2ccc3ccccc3c2)nc2ccccc12`, the TGI in experiment [1], in experiment [2], in experiment [3], in [4], in experiment [5] and in experiment [6] was > 100 µM in each case. The TGI in experiment [7], in [8], in experiment [9] and in experiment [10] was > 100 µM each time.

With `C=C1CC(c2ccc(OCCCN3C(=O)c4ccccc4C3=O)c(OC)c2)OC1=O` (stereo not given), the TGI in experiment [1] is 17.3 µM; in experiment [2] it was 27 µM; in experiment [3], 27.7 µM; in experiment [4], 23.2 µM; in [5] it was 2.72 µM; in [6], 4.75 µM. For the same compound, the TGI in experiment [7] was found to be 8.41 µM; in [8], 31.9 µM; in [9], 28.2 µM; in experiment [10], 25.7 µM.

For `O=[N+]([O-])c1ccccc1S(=O)(=O)c1cc(Cl)cc2c1NCCC2`, the TGI in [1] is > 100 µM; in [2], > 100 µM; in experiment [3], > 100 µM; in [4] it was 86.1 µM; in experiment [5] it was > 100 µM; in experiment [6], > 100 µM. The TGI in experiment [7], in experiment [8], in [9] and in experiment [10] was > 100 µM each time.

Turning to `Cc1nc2ccccc2c(=O)n1NC(=O)c1ccc(CS)cc1`, the TGI was found to be 34.2 µM in [1]; 64.5 µM in experiment [2]; 45.8 µM in [3]; 29.2 µM in experiment [4]; 12.3 µM in [5]; 21.7 µM in [6]. For the same compound, the TGI in experiment [7] was determined as 27.2 µM; in [8], 83.9 µM; in experiment [9], 63.7 µM; in experiment [10], 19.2 µM.

As for `COc1nc(C(=O)NNC(=O)c2nc(OC)c3ccccc3c2-c2ccccc2)c(-c2ccccc2)c2ccccc12`, the TGI in experiment [1], in [2], in [3], in experiment [4], in experiment [5] and in experiment [6] was > 100 µM each time. Also, the TGI in [7], in [8], in [9] and in experiment [10] was > 100 µM throughout.

In the case of `CC(C)(C)OC(=O)NCC(O)CNC(=O)OC(C)(C)C`, the TGI in [1], in experiment [2], in [3], in [4], in [5] and in experiment [6] was > 100 µM throughout. Besides, the TGI in experiment [7], in experiment [8], in experiment [9] and in experiment [10] was > 100 µM in each case.

Consider `CCOC(=O)C1=C(C)N(C)C23OC4(C(=O)OC)CC2c2ccccc2C1N3C4=O` (stereo not given), for which the TGI in [1], in [2], in [3], in experiment [4], in experiment [5] and in experiment [6] was > 100 µM each time. The TGI in experiment [7], in experiment [8], in experiment [9] and in experiment [10] was > 100 µM in each case.

These data come from PubChem BioAssay (NCI).
